Results reported in patent publication US11149049B2, “Substituted nucleosides, nucleotides and analogs thereof” (JANSSEN BIOPHARMA, INC., priority 2017, dated 2021).
Like-named read-outs stand apart in the source and are kept apart here.

Assays:
[1] = Cytotoxicity in the DENV assay, uninfected parallel cultures; conditions: human
[2] = tested on: Human rhinovirus 1B; experiment: Rhinovirus antiviral assay (HRV1B); format: cell-based; conditions: Rhinovirus A, 96 h
[3] = tested on: RSV replicon; experiment: microbe, parasite or virus in culture; format: cell-based; conditions: human respiratory syncytial virus, 168 h, read-out: RSV EC50, HeLa-derived RSV replicon cells, 7 days, luciferase
[4] = tested on: human β-coronavirus strain OC43; experiment: Coronavirus antiviral assay (OC43); format: cell-based; conditions: Betacoronavirus 1, OC43, 120 h; HeLa or MRC-5 cells, five days, CellTiter-Glo; read-out: OC43CoV EC50
Protocol: (§1) The human β-coronavirus strain OC43 was purchased from ATCC (Manassas, Va.; item numbers VR-1558 and VR-740, respectively). 24 hours prior to dosing, HeLa human cervix epithelial cells (ATCC, CCL-2) or MRC-5 human lung fibroblast (ATCC, CCL-171) were plated in 96 well plates at a density of 1.5×10^5/ml in DMEM medium supplemented with 10% fetal bovine serum, 1% HEPES buffer, 1% Penicillin/Streptomycin and 1% non-essential amino acids (all Mediatech, Manassas, Va.). At the day of infection, serially diluted compounds were added to cells and incubated for 4 hours. After the end of the 4 hour pre-incubation period, cells were infected with either coronavirus strain OC43 or 229E. The virus inoculum was selected to cause 80-90% cytopathic effect. Infected cells were incubated for five days at 37° C., 5% CO2. To develop the assay, 100 μl media was replaced with 100 μl CellTiter-Glo® reagent (Promega, Madison, Wis.), and incubated for 10 min at room temperature. Luminescence was measured on a Victor X3 multi-label plate reader. Potential compound cytotoxicity was determined using uninfected parallel cultures.

[5] = tested on: Dengue virus type 2 NG-C or Dengue virus type 4 H241; experiment: Dengue antiviral assay (DENV); format: cell-based; conditions: Huh-7.5 cells, five to six days, CellTiter-Glo
Protocol: The Dengue virus type 2 strain New Guniea C (NG-C) and the Dengue virus type 4 strain H241 were purchased from ATCC (Manassas, Va.; item numbers VR-1584 and VR-1490, respectively). 24 hours prior to dosing, Huh-7.5 cells were plated in 96 well plates at a density of 1.5×10^5/ml in DMEM medium supplemented with 10% fetal bovine serum, 1% HEPES buffer, 1% Penicillin/Streptomycin and 1% non-essential amino acids (all Mediatech, Manassas, Va.). At the day of infection, serially diluted compounds were added to cells and incubated for 4 hours. After the end of the 4 hour pre-incubation period, cells were infected with either Dengue virus type 2 NG-C or Dengue virus type 4 H241. The virus inoculum was selected to cause 80-90% cytopathic effect in five to six days. Infected cells were incubated for five (NG-C) to six (H241) days at 37° C., 5% CO2. To develop the assay, 100 μl media was replaced with 100 μl CellTiter-Glo® reagent (Promega, Madison, Wis.), and incubated for 10 min at room temperature. Luminescence was measured on a Victor X3 multi-label plate reader. Potential compound cytotoxicity was determined using uninfected parallel cultures.

[6] = Cytotoxicity in the coronavirus assay, uninfected parallel cultures; format: cell-based; conditions: human, read-out: OC43CoV CC50
Protocol: as §1

[7] = in vitro; conditions: human
[8] = in vitro; conditions: human; remark: listed apart in the source
[9] = tested on: Ebola minigenome; experiment: microbe, parasite or virus in culture; format: cell-based; conditions: Zaire ebolavirus, HEp-2, 48 h, read-out: EBOV EC50, HEp-2 cells, Ebola minigenome, 48 hours
[10] = tested on: Huh-7.5 cells; experiment: Cytotoxicity in the DENV assay, uninfected parallel cultures; conditions: read-out: DENV CC50; uninfected Huh-7.5 parallel cultures
[11] = Cell viability (CC50) in the RSV replicon assay; conditions: human, HeLa-derived cells containing the stable RSV replicon, CellTiter-Glo
[12] = Toxicity (CC50) in the HRV1B assay; conditions: human

Compound | CC50 [1] | EC50 ([2]; HeLa-OHIO cells, 4 d, CellTiter-Glo, read-out: HRV 1B EC50) | EC50 [3] | EC50 [4] | EC50 ([5]; Dengue virus, Huh7.5, 144 h) | CC50 at 5 days [6] | CC50 [7] | CC50 at 4 d [8] | EC50 [9] | CC50 ([1]; DENV CC50, uninfected Huh-7.5 parallel cultures) | CC50 [10] | EC50 ([2]; read-out: HRV 1B EC50, HeLa-OHIO cells, 4 d, CellTiter-Glo) | CC50 at 7 days [11] | EC50 [5] | CC50 at 4 d [12]
CCC(CC)COC(=O)[C@@H](C)NP(=O)(OC[C@H]1O[C@@](C#N)(c2ccc3c(N)ncnn23)[C@H](O)[C@@H]1O)Oc1ccccc1 (stereo partly drawn) [Compound C1, reference compound] | 22000 nM | 120 nM | 20 nM | 65 nM | 130 nM | 69000 nM | 51000 nM | 6000 nM | 800 nM | – | – | – | – | – | –
CC(C)OC(=O)[C@H](C)NP(=O)(OC[C@@]1(F)O[C@@](C#N)(c2ccc3c(N)ncnn23)[C@H](O)[C@@H]1O)Oc1ccccc1 (stereo partly drawn) [Compound 6, Isopropyl ((((2S,3S,4R,5R)-5-(4-aminopyrrolo[2,1-f][1,2,4]triazin-7-yl)-5-cyano-2-fluoro-3,4-dihydroxytetrahydrofuran-2-yl)methoxy)(phenoxy)phosphoryl)-L-alaninate] | – | – | 20 nM | 1700 nM | 250 nM | > 100000 nM | > 100000 nM | – | 2500 nM | 78000 nM | 69000 nM | 4100 nM | 43000 nM | 330 nM | > 100000 nM
